From ChEMBL document CHEMBL3046386, “Cyclophosphamide analogues: synthesis, spectroscopic study, and antitumor activity of diazaphosphorinanes” (Med Chem Res, 2011) come the findings set out here.

A short description of series [1]: Distribution coefficient, log D of the compound. The following applies: octanol/water.
Series [2] can be described thus: Lipophilicity, log P of the compound. As to conditions: octanol/water.
The next series relates to K562. The experiment in a line: Antiproliferative activity against Homo sapiens (human) K562 cells after 48 hr by MTT assay. Format: functional, cell-based. As to conditions: K562, 48 h.

`O=P1(N(CCCl)CCCl)NCCCO1` (stereo unspecified) [CYCLOPHOSPHAMIDE ANHYDROUS]: the logD in series [1] is 0.05. In series [2], this compound registered a log partition coefficient (logP) of 1.12.
The compound `CC1(C)CNP(=O)(NC(=O)c2ccc([N+](=O)[O-])cc2)NC1` yielded a logD in series [1] of -0.03. Also, the logP in series [2] worked out at 0.34. Besides, it took 6.49 µM to reach half-maximal inhibition in the series with K562 (IC50).
For `CC1(C)CNP(=O)(NC(=O)c2ccccc2[N+](=O)[O-])NC1`, in series [1], the log distribution coefficient (logD) is -0.04. In series [2], the logP was 0.34. The IC50 in the series on K562 was found to be 6.87 µM.
Taken in the same sequence, the figures for `CC1(C)CNP(=O)(NC(=O)c2cccc([N+](=O)[O-])c2)NC1` were -0.03, 0.34 and 5.08 µM.
In series [1], `Cc1ccc(OP2(=O)NCC(C)(C)CN2)cc1` showed a logD of 0.73. The same compound gave a logP in series [2] of 1.55.
Turning to `CC1(C)CNP(=O)(Nc2ccc(S(N)(=O)=O)cc2)NC1`, the logD in series [1] was -1. This compound also gave a logP in series [2] of -0.78. The IC50 in the series with K562 came to 58.2 µM.
